# Source: paper PMC12428237, “Study on the Calcium Transport-Promoting Property and Mechanism of the Peptide–Calcium Complex DEEENDQVK–Ca Based on a Caco-2 Monolayer Model” (Foods, 2025)
# Like-named read-outs stand apart in the source and are kept apart here.
# Legend:
# [1] = test system: Caco-2 monolayer; conditions: cited from earlier work; for increase of intestinal calcium transport compared with the control group: within 30 min
# Experimental: With 1~2 mg/mL of DK, the tran ... || This study’s results align with earlier findings regarding peptide–calcium complexes.
# [2] = test system: Caco-2 monolayer; test: Fluo-4 AM fluorescence imaging of intracellular calcium influx; format: cell-based, human; conditions: samples containing 150 μg/mL calcium, 24 h, Fluo-4 AM 4 μmol/L, confocal microscope
# Experimental: Fluorescence imaging based on intracellular calcium influx was conducted to assess the calcium transport-promoting effect in the Caco-2 monolayer following the method of Men et al.. Log-phase cells were seeded at 1.5 × 10^5 cells/well in 35 mm laser confocal dishes and gently agitated to ensure uniform distribution. Cultures were maintained at 37 °C in 5% CO2 with daily medium replacement until confluent monolayers formed. Subsequently, CaCl2, DK + CaCl2, and DK–Ca solutions (each containing 150 μg/mL calcium) were added separately. The group without an added sample served as the control group. Following 24 h of incubation, the cells were washed thrice with prewarmed calcium-/magnesium-free HBSS buffer (pH 7.2). Under light-protected conditions, 200 µL of Fluo-4 AM (4 μmol/L) was applied to cover the cells. Following 30 min incubation at 37 °C and subsequent washes, cells were dark-adapted for 10 min at room temperature for de-esterification. Imaging was conducted using a confocal microscope (excitation at 496 nm, Zeiss LSM980 Airyscan2, Carl Zeiss, Germany ), followed by quantification of the fluorescence intensity with ImageJ 1.54 g software.
# [3] = test system: Caco-2 monolayer; test: Calcium transport assay in Caco-2 monolayer model; format: cell-based, human; conditions: 7.5 mM CaCl2 on AP side, AP to BL, HBSS pH 7.4, 37 °C, 120 min, calcium colorimetric kit 575 nm; mean ± SD, n = 3
# Experimental: (§1) Caco-2 cells (passages 15–30) were seeded at 1 × 10^5 cells/mL in Transwell chambers (12 mm, 0.4 μm pores, polycarbonate membrane, 1.12 cm^2 area) to establish a Caco-2 monolayer model. The culture medium (0.5 mL in the apical and 1.5 mL in the basolateral) was refreshed every 48 h (first week), then daily (next two weeks). The integrity of the Caco-2 cell monolayer model was verified by the following multiple indicators: Transepithelial electrical resistance (TEER) was monitored every 48 h using an epithelial voltohmmeter (RE1600, Beijing Jingong Hongtai Technology Co., Ltd., Beijing, China). Alkaline phosphatase (ALP) activity was measured on days 8, 12, 14, 16, and 21 after inoculation utilizing an ALP assay kit, following the manufacturer’s protocol. Transepithelial permeability was evaluated using sodium fluorescein following the method of Qiu et al..
# Caco-2 monolayer models with a TEER value exceeding 500 Ω·cm^2 are permitted for calcium transport studies. Following three sequential washes with Hank’s balanced salt solution (HBSS; calcium/magnesium-free, pH 7.4), monolayers were equilibrated at 37 °C for 30 min. Afterward, the Transwell chambers were moved to fresh receiver plates for transport assays.
# Concentration-dependent CaCl2 transport assay: 0.5 mL of CaCl2 solution (1.5~10 mM) was added to the apical (AP) side. The basolateral (BL) side contained 1.5 mL prewarmed HBSS. After 120 min incubation at 37 °C and 5% CO2, the BL side solution was collected for calcium transport analysis.
# Time-dependent CaCl2 transport assay: The AP side contained 0.5 mL of 7.5 mM CaCl2 solution, and the BL side 1.5 mL prewarmed HBSS. At designated intervals (30~180 min), 1 mL BL side solution was collected and replaced with equal volumes of fresh HBSS buffer to maintain consistency.
# Different concentrations of DK solution (0.5~2 mg/mL, 0.5 mL) containing 7.5 mM CaCl2, or 0.5 mL of DK–Ca solution (0.5~2 mg/mL), were added to the AP side. The BL side contained 1.5 mL prewarmed HBSS. The control group contained 7.5 mM CaCl2 alone on the AP side. At designated intervals (30~180 min), 1 mL BL side solution was collected and replaced with equal volumes of fresh HBSS buffer to maintain consistency.
# Calcium concentration in the collected sample was measured using a calcium colorimetric assay kit at 575 nm. Transported calcium was calculated as follows:(1) Tn=1.5Cn+1×∑k=1n-1Ck […]
# [4] = test system: Caco-2 monolayer; test: Effect of dietary components (vitamin D3, phytic acid) on calcium transport in Caco-2 monolayer; format: cell-based, human; conditions: 120 min, control without dietary component, n = 3
# Experimental: Vitamin D3 (0.5 μmol/L, dissolved in 0.1% ethanol) or phytic acid (1.8 mM, with a of phytic acid/calcium molar ratio of 0.24) was added to the AP side to evaluate the effect of dietary components on calcium transport. The group without an added dietary component served as the control group. After 120 min incubation, the BL side solution was collected for calcium transport analysis.
# [5] = test system: Caco-2 cells; test: MTT cell viability assay; format: cell-based, human; conditions: 24 h, concentration range 0~5 mg/mL, n = 3
# Experimental: Caco-2 cells were maintained in complete DMEM medium containing 20% (v/v) FBS, 1% non-essential amino acids, and penicillin-streptomycin (100 U/mL−100 μg/mL) at 37 °C under 5% CO2 atmosphere, with medium replacement every 48 h. At 80–90% confluency, cells were seeded into 96-well plates (1 × 10^4 cells/well). After 24 h of incubation, the original medium was exchanged for a new solution containing CaCl2 (0~5 mg/mL), DK (0~5 mg/mL), DK + CaCl2 (1:1 w/w, 0~5 mg/mL), DK–Ca (0~5 mg/mL), 2-APB (0~75 μmol/L), cytochalasin D (0~2 μg/mL), and mβCD (0~5 mmol/L). After 24 h of incubation, the cell viability was assessed by MTT [21].
# [6] = test system: Caco-2 monolayer; test: Transepithelial permeability of sodium fluorescein (monolayer integrity); format: in vitro ADME, human; conditions: Transwell, after 21 days of differentiation, mean ± SD
# Experimental: as §1
# [7] = cited from earlier work
# Excerpt: Dietary calcium supplementation offers a direct solution to calcium deficiency. However, traditional calcium supplements (e.g., calcium carbonate) suffer from limitations such as low bioavailability and gastrointestinal irritation, which lead to reduced efficacy. […] This enhanced performance is primarily attributed to the peptide ... || This study’s results align with earlier findings regarding peptide–calcium complexes.
# [8] = test system: Caco-2 monolayers; conditions: 120 min; cited from earlier work
# Experimental: To assess component changes in DK–Ca after 120 min of calcium-promoting transport, solutions collected from the AP and BL sides of the monolayer were subjected to RP-HPLC analysis.
compound,measurement,setting,value
[Ca+2].[Cl-].[Cl-] [CaCl2],decrease of calcium absorption by phytic acid,[1],79.86%
same,fluorescence intensity (intracellular calcium influx) compared to the control group,[2],significantly increased
same,transported calcium,[3],27.55 ± 1.20 μg/well
same,reduction of transported calcium by phytic acid compared to the control group,[4]; phytic acid 1.8 mM (phytic acid/calcium molar ratio 0.24) on AP side,49.11%
same,increase of transported calcium by vitamin D3 compared to the control group,[4]; vitamin D3 0.5 μmol/L on AP side,22.68%
"C=C1[C@@H](C)[C@H]2[C@H](Cc3ccccc3)NC(=O)[C@]23[C@H](OC(C)=O)/C=C/[C@@](C)(O)C(=O)[C@@H](C)C/C=C/[C@H]3[C@@H]1O [cytochalasin D, Cytochalasin D]",cytotoxicity to Caco-2 cells,[5],no cytotoxicity
O=C([O-])c1ccccc1-c1c2ccc(=O)cc-2oc2cc([O-])ccc12.[Na+].[Na+] [sodium fluorescein],apparent permeability coefficient (Papp),[6]; 30 min,7.17±0.22 ×10^-7 cm/s
same,apparent permeability coefficient (Papp),[6]; 60 min,7.47±0.25 ×10^-7 cm/s
same,apparent permeability coefficient (Papp),[6]; 90 min,7.56±0.64 ×10^-7 cm/s
same,apparent permeability coefficient (Papp),[6]; 120 min,8.35 ± 0.15 ×10-7 cm/s
AHVGMSGEEPE [rice protein-derived peptide],calcium-binding capacity,[7],55.69 mg/g
"AHVGMSGEEPE-Ca [AHV-Ca, rice peptide–calcium complex]",transported calcium,[1]; Caco-2 monolayers,61.75 ± 13.23 μg/well
same,"transported calcium, fold versus CaCl2",[1]; Caco-2 monolayers,2.16 fold
"DHTKE [DHTKE–calcium complex, egg white hydrolysate-derived DHTKE–calcium complex]",increase of transported calcium compared to the calcium-free control group,[1],seven-fold
FDHIVY [tilapia collagen-derived peptide],increase of intestinal calcium transport compared with the control group,[1],202%
GPAGPHGPVG [tilapia collagen-derived peptide],increase of intestinal calcium transport compared with the control group,[1],89%
LVFL,calcium-binding capacity,[7],79.50 mg/g
VLPVPQK,calcium-binding capacity,[7],129.46 mg/g
YGTGL,calcium-binding capacity,[7],76.03 mg/g
YQEPVIAPKL [tilapia collagen-derived peptide],increase of intestinal calcium transport compared with the control group,[1],130%
YQEPVPVRGPFPIIV,cleavage after culture in Caco-2 monolayers,[8],cleaved into […] and […]
